Laboratory results from patent publication US9242984B2, “Pyrazolyl derivatives as Syk inhibitors” (Merck Sharp & Dohme Corp., priority 2012, dated 2016).

Target: T1, recombinant human Syk (GST-hSyk fusion protein) (Homo sapiens, UniProt P43405)
T1 construct: purchased Carna Biosciences 08-176
Assay: Homogeneous Time-Resolved Fluorescence (HTRF) assay for the recombinant human Syk enzyme
Type: biochemical
Conditions: IC50 class; 10-dose titration, 25 μM ATP; read-out: rhSYK Activity
In short: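 IC50 came from a four-parameter fit over ten doses, 10 μM to 0.508 nM, with HTRF read-out (Eu-anti-pTyr antibody, SA-APC, EDTA stop, 30 min). The enzyme, 5 pM GST-hSyk, met compound for 10 min, then phosphorylated 250 nM biotin-peptide with 25 μM ATP and 5 mM Mg for 45 min at room temperature, pH 7.5.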

| IC50 | Structure (SMILES) |
| --- | --- |
| ≤ 100 nM | Cc1cc(Nc2nccc(C(F)F)n2)cc(-c2cnn(C(C)C3CNC(=O)O3)c2)c1 (centres unmarked) [Example 3.93, 5-{1-[4-(3-{[4-(difluoromethyl)pyrimidin-2-yl]amino}-5-methylphenyl)-1H-pyrazol-1-yl]ethyl}-1,3-oxazolidin-2-one] |
| ≤ 100 nM | Cc1cc(Nc2nccc(C(F)F)n2)cc(-c2cnn(CC3OC(=O)NC34CC4)c2)c1 (centres unmarked) [Example 3.94, 7-{[4-(3-{[4-(difluoromethyl)pyrimidin-2-yl]amino}-5-methylphenyl)-1H-pyrazol-1-yl]methyl}-6-oxa-4-azaspiro[2.4]heptan-5-one] |
| ≤ 100 nM | Cc1cc(Nc2nccc(C(F)F)n2)cc(-c2cnn(Cc3ccc(=O)[nH]c3)c2)c1 [Example 3.95, 5-{[4-(3-{[4-(difluoromethyl)pyrimidin-2-yl]amino}-5-methylphenyl)-1H-pyrazol-1-yl]methyl}pyridin-2(1H)-one] |
| ≤ 100 nM | Cc1cc(Nc2nccc(C(F)(F)F)n2)cc(-c2cnn(C[C@H]3COC(=O)N3)c2)c1 [Example 3.96, (4S)-4-{[4-(3-methyl-5-{[4-(trifluoromethyl)pyrimidin-2-yl]amino}phenyl)-1H-pyrazol-1-yl]methyl}-1,3-oxazolidin-2-one] |
| ≤ 100 nM | Cc1cc(Nc2nccc(C(F)(F)F)n2)cc(-c2cnn(C[C@@H]3COC(=O)N3)c2)c1 [Example 3.97, (4R)-4-{[4-(3-methyl-5-{[4-(trifluoromethyl)pyrimidin-2-yl]amino}phenyl)-1H-pyrazol-1-yl]methyl}-1,3-oxazolidin-2-one] |
| ≤ 100 nM | CC(=O)C(C)n1cc(-c2cc(C)cc(Nc3nccc(C(F)F)n3)c2)cn1 (centres unmarked) [Example 3.98, 3-[4-(3-{[4-(difluoromethyl)pyrimidin-2-yl]amino}-5-methylphenyl)-1H-pyrazol-1-yl]butan-2-one] |
| ≤ 100 nM | Cc1cc(Nc2nccc(C(F)(F)F)n2)cc(-c2cnn(CC3OC(=O)NC3(C)C)c2)c1 (centres unmarked) [Example 3.99, 4,4-dimethyl-5-{[4-(3-methyl-5-{[4-(trifluoromethyl)pyrimidin-2-yl]amino}phenyl)-1H-pyrazol-1-yl]methyl}-1,3-oxazolidin-2-one] |
| ≤ 100 nM | Cc1cc(Nc2nccc(C(F)(F)F)n2)cc(-c2cnn(CC3OC(=O)NC3(C)C)c2)c1 (centres unmarked) [Example 3.100, 4,4-dimethyl-5-{[4-(3-methyl-5-{[4-(trifluoromethyl)pyrimidin-2-yl]amino}phenyl)-1H-pyrazol-1-yl]methyl}-1,3-oxazolidin-2-one] |
| ≤ 100 nM | Cc1cc(Nc2nccc(C(C)(F)F)n2)cc(-c2cnn(CC3OC(=O)NC3(C)C)c2)c1 (centres unmarked) [Example 3.101, 5-{[4-(3-{[4-(1,1-difluoroethyl)pyrimidin-2-yl]amino}-5-methylphenyl)-1H-pyrazol-1-yl]methyl}-4,4-dimethyl-1,3-oxazolidin-2-one] |
| ≤ 100 nM | Cc1cc(Nc2nccc(C(F)F)n2)cc(-c2cnn(CC3OC(=O)NC3(C)C)c2)c1 (centres unmarked) [Example 3.102, 5-{[4-(3-{[4-(difluoromethyl)pyrimidin-2-yl]amino}-5-methylphenyl)-1H-pyrazol-1-yl]methyl}-4,4-dimethyl-1,3-oxazolidin-2-one] |
| ≤ 100 nM | Cc1cc(Nc2nccc(C(F)F)n2)cc(-c2cnn(CC3OC(=O)NC3(C)C)c2)c1 (centres unmarked) [Example 3.103, 5-{[4-(3-{[4-(difluoromethyl)pyrimidin-2-yl]amino}-5-methylphenyl)-1H-pyrazol-1-yl]methyl}-4,4-dimethyl-1,3-oxazolidin-2-one] |
| ≤ 100 nM | Cc1cc(Nc2nccc(C(C)(F)F)n2)cc(-c2cnn(CC3OC(=O)NC3(C)C)c2)c1 (centres unmarked) [Example 3.104, 5-{[4-(3-{[4-(1,1-difluoroethyl)pyrimidin-2-yl]amino}-5-methylphenyl)-1H-pyrazol-1-yl]methyl}-4,4-dimethyl-1,3-oxazolidin-2-one] |
| ≤ 100 nM | Cc1cc(Nc2nccc(C)n2)cc(-c2cnn(CC3OC(=O)NC3(C)C)c2)c1 (centres unmarked) [Example 3.105, 4,4-dimethyl-5-[(4-{3-methyl-5-[(4-methylpyrimidin-2-yl)amino]phenyl}-1H-pyrazol-1-yl)methyl]-1,3-oxazolidin-2-one] |
| ≤ 100 nM | Cc1cc(Nc2nccc(C)n2)cc(-c2cnn(CC3OC(=O)NC3(C)C)c2)c1 (centres unmarked) [Example 3.106, 4,4-dimethyl-5-[(4-{3-methyl-5-[(4-methylpyrimidin-2-yl)amino]phenyl}-1H-pyrazol-1-yl)methyl]-1,3-oxazolidin-2-one] |
| ≤ 100 nM | Cc1cc(Nc2nccc(C(F)(F)F)n2)cc(-c2cnn(CC3NC(=O)OC3C)c2)c1 (centres unmarked) [Example 3.107, 5-methyl-4-{[4-(3-methyl-5-{[4-(trifluoromethyl)pyrimidin-2-yl]amino}phenyl)-1H-pyrazol-1-yl]methyl}-1,3-oxazolidin-2-one] |
| ≤ 100 nM | Cc1cc(Nc2nccc(C(F)F)n2)cc(-c2cnn(Cc3cnc(C)[nH]3)c2)c1 [Example 3.108, 4-(difluoromethyl)-N-(3-methyl-5-{1-[(2-methyl-1H-imidazol-5-yl)methyl]-1H-pyrazol-4-yl}phenyl)pyrimidin-2-amine] |

| IC50 | Structure (SMILES) |
| --- | --- |
| ≤ 100 nM | Cc1cc(Nc2nccc(C(F)F)n2)cc(-c2cnn(Cc3[nH]cnc3C)c2)c1 [Example 3.109, 4-(difluoromethyl)-N-(3-methyl-5-{1-[(4-methyl-1H-imidazol-5-yl)methyl]-1H-pyrazol-4-yl}phenyl)pyrimidin-2-amine] |
| ≤ 100 nM | Cc1cc(Nc2nccc(C(F)F)n2)cc(-c2cnn(Cc3c[nH]cn3)c2)c1 [Example 3.110, 4-(difluoromethyl)-N-{3-[1-(1H-imidazol-4-ylmethyl)-1H-pyrazol-4-yl]-5-methylphenyl}pyrimidin-2-amine] |
| ≤ 100 nM | Cc1cc(Nc2nccc(C(F)F)n2)cc(-c2cnn(CCc3cn[nH]c3)c2)c1 [Example 3.111, 4-(difluoromethyl)-N-(3-methyl-5-{1-[2-(1H-pyrazol-4-yl)ethyl]-1H-pyrazol-4-yl}phenyl)pyrimidin-2-amine] |
| ≤ 100 nM | Cc1cc(Nc2nccc(C(F)F)n2)cc(-c2cnn(CC(O)CO)c2)c1 (centres unmarked) [Example 3.112, 3-[4-(3-{[4-(difluoromethyl)pyrimidin-2-yl]amino}-5-methylphenyl)-1H-pyrazol-1-yl]propane-1,2-diol] |
| ≤ 100 nM | CCC(C)(O)Cn1cc(-c2cc(C)cc(Nc3nccc(C(F)F)n3)c2)cn1 (centres unmarked) [Example 3.113, 1-[4-(3-{[4-(difluoromethyl)pyrimidin-2-yl]amino}-5-methylphenyl)-1H-pyrazol-1-yl]-2-methylbutan-2-ol] |
| ≤ 100 nM | CCC(C)(O)Cn1cc(-c2cc(C)cc(Nc3nccc(C(F)F)n3)c2)cn1 (centres unmarked) [Example 3.114, 1-[4-(3-{[4-(difluoromethyl)pyrimidin-2-yl]amino}-5-methylphenyl)-1H-pyrazol-1-yl]-2-methylbutan-2-ol] |
| ≤ 100 nM | Cc1cc(Nc2ncccn2)cc(-c2cnn(CC3CNC(=O)O3)c2)c1 (centres unmarked) [Example 3.115, 5-({4-[3-methyl-5-(pyrimidin-2-ylamino)phenyl]-1H-pyrazol-1-yl}methyl)-1,3-oxazolidin-2-one] |
| ≤ 100 nM | Cc1cc(Nc2ncccn2)cc(-c2cnn(CC3CNC(=O)O3)c2)c1 (centres unmarked) [Example 3.116, 5-({4-[3-methyl-5-(pyrimidin-2-ylamino)phenyl]-1H-pyrazol-1-yl}methyl)-1,3-oxazolidin-2-one] |
| ≤ 100 nM | Cc1cc(Nc2nccc(C(F)(F)F)n2)cc(-c2cnn(CC3(C)CNC(=O)O3)c2)c1 (centres unmarked) [Example 3.117, 5-methyl-5-{[4-(3-methyl-5-{[4-(trifluoromethyl)pyrimidin-2-yl]amino}phenyl)-1H-pyrazol-1-yl]methyl}-1,3-oxazolidin-2-one] |
| ≤ 100 nM | Cc1cc(Nc2nccc(C(F)(F)F)n2)cc(-c2cnn(CC3(C)CNC(=O)O3)c2)c1 (centres unmarked) [Example 3.118, 5-methyl-5-{[4-(3-methyl-5-{[4-(trifluoromethyl)pyrimidin-2-yl]amino}phenyl)-1H-pyrazol-1-yl]methyl}-1,3-oxazolidin-2-one] |
| ≤ 100 nM | Cc1cc(Nc2nccc(C(F)(F)F)n2)cc(-c2cnn(CC3OC(=O)NC3C)c2)c1 (centres unmarked) [Example 3.119, 4-methyl-5-{[4-(3-methyl-5-{[4-(trifluoromethyl)pyrimidin-2-yl]amino}phenyl)-1H-pyrazol-1-yl]methyl}-1,3-oxazolidin-2-one] |
| ≤ 100 nM | Cc1cc(Nc2nccc(C(F)(F)F)n2)cc(-c2cnn(CC3OC(=O)NC3C)c2)c1 (centres unmarked) [Example 3.120, 4-methyl-5-{[4-(3-methyl-5-{[4-(trifluoromethyl)pyrimidin-2-yl]amino}phenyl)-1H-pyrazol-1-yl]methyl}-1,3-oxazolidin-2-one] |
| ≤ 100 nM | Cc1cc(Nc2nccc(C)n2)cc(-c2cnn(CC3(C)CNC(=O)O3)c2)c1 (centres unmarked) [Example 3.121, 5-methyl-5-[(4-{3-methyl-5-[(4-methylpyrimidin-2-yl)amino]phenyl}-1H-pyrazol-1-yl)methyl]-1,3-oxazolidin-2-one] |
| ≤ 100 nM | Cc1cc(Nc2nccc(C)n2)cc(-c2cnn(CC3(C)CNC(=O)O3)c2)c1 (centres unmarked) [Example 3.122, 5-methyl-5-[(4-{3-methyl-5-[(4-methylpyrimidin-2-yl)amino]phenyl}-1H-pyrazol-1-yl)methyl]-1,3-oxazolidin-2-one] |
| ≤ 100 nM | Cc1cc(Nc2nccc(C(F)F)n2)cc(-c2cnn(CC3(C)CNC(=O)O3)c2)c1 (centres unmarked) [Example 3.123, 5-{[4-(3-{[4-(difluoromethyl)pyrimidin-2-yl]amino}-5-methylphenyl)-1H-pyrazol-1-yl]methyl}-5-methyl-1,3-oxazolidin-2-one] |
| ≤ 100 nM | Cc1cc(Nc2nccc(C(F)F)n2)cc(-c2cnn(CC3(C)CNC(=O)O3)c2)c1 (centres unmarked) [Example 3.124, 5-{[4-(3-{[4-(difluoromethyl)pyrimidin-2-yl]amino}-5-methylphenyl)-1H-pyrazol-1-yl]methyl}-5-methyl-1,3-oxazolidin-2-one] |
